# In US12156880B2, “Heterocyclic RIP1 kinase inhibitors” (Rigel Pharmaceuticals, Inc., priority 2021, dated 2024):
# Key:
# [1] = target: T1, RIPK1 (Homo sapiens, UniProt Q13546); experiment: RIPK1 ADP-Glo biochemical kinase assay; conditions: read-out: RIPK1 ADP-Glo Kinase (IC50)
# T1 sequence (Q13546 1-671): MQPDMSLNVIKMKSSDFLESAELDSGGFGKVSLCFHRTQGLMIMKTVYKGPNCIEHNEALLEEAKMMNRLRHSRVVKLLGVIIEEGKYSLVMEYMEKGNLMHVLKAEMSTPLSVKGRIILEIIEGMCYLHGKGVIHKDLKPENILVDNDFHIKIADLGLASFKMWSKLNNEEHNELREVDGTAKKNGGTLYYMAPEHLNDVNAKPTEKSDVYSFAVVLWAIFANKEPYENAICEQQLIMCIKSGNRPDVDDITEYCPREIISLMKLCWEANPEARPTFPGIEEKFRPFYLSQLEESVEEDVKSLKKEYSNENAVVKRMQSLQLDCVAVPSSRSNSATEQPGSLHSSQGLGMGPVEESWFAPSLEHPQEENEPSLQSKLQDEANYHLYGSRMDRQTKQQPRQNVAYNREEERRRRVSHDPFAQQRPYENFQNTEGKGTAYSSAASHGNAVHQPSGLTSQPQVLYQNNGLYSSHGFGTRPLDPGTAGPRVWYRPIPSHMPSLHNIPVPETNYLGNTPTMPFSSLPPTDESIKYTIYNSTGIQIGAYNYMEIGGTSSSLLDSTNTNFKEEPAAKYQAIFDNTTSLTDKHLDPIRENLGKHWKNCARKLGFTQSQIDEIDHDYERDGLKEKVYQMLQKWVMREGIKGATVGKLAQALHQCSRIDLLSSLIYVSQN
# Summary of the method: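 RIPK1 at 31 ng/well in Tris pH 7.4 buffer with MgCl2, BSA, DTT and MnCl2, reacted with compounds (duplicate) for 30 min at 30 °C. ADP formed detected by ADP-Glo: 40 min stop/depletion, then 30 min detection reagent at room temperature; luminescence read.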
# [2] = tested on: L929 cells; experiment: L929 cell necroptosis assay (TNFa + zVAD, CellTiter-Glo recovery); type: cell-based, murine; conditions: Mus musculus, L929, 18 h, TNFa 2 ng/mL + zVAD-fmk, read-out: L929-CTG-recovery, L929, TNFa + zVAD (IC50)
# Description: In this example, U937 and L929 cells were exposed to compounds of the present disclosure and a cell necroptosis assay was conducted to evaluate the compounds' activity against human RIP1 and murine RIP1.
# U937 and L929 cells were obtained from the American Type Culture Collection (Manassas, VA, USA). Both cells were maintained in logarithmic growth phase in complete RPMI 1640 media (Sigma, ST Louis, MO, USA) supplemented with 10% fetal bovine serum (Sigma, ST Louis, MO, USA) at 37° C. with 5% CO2. For necroptosis assay, L929 cells were plated for 18 h in 100 μL/well medium at 10K cells/well in Costar 96-well black clear-bottom plates (Fisher Scientific, Hampton, NH, USA); U937 cells were plated on the day of the assay in 50 μL/well medium containing 60 uM zVAD-fmk (Lonza, Basel, Switzerland) at 50K cells/well. Medium from L929 cells were removed from the 96-well plates and replaced with 50 μL/well new medium containing 40 uM zVAD-fmk. Each compound of the present disclosure evaluated in this example was serially diluted in DMSO from 2.5 mM in 4-fold dilutions, and then diluted 1:125 in complete medium. 50 μL/well 2× of the compound was then added to the cells in the plates. The cells were pre-incubated with the compound for 1 hour at 37° C. with 5% CO2 and before addition of 10 μL/well 11×TNFa (Peprotech, Rocky Hill, NJ, USA) to give a final concentration of 2 ng/mL for TNFa. The relative amount of necroptosis cells was determined by luminescent using a Wallac Victor2 Luminometer (PerkinElmer, Waltham, MA, USA) and a CellTiter-Glo® Luminescent Cell Viability Reagent Assay (Promega, Madison, WI, USA) added per manufacturer instructions after 18 hours of TNFa stimulation at 37° C. with 5% CO2. This example establishes that embodiments of the compounds described herein have unexpectedly potent activity against human RIP1 and murine RIP1, which allows their assessment in in vivo mouse models of disease.
# [3] = tested on: U937 cells; experiment: U937 cell necroptosis assay (TNFa + zVAD, CellTiter-Glo recovery); type: cell-based; conditions: Homo sapiens, U-937, 18 h, TNFa 2 ng/mL + zVAD-fmk, read-out: U937 Zvad TNF CTG Recovery, U937, TNFa + zVAD (IC50)
# Summary of the method: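 Human U937 (50K/well, 60 uM zVAD-fmk medium, plated same day) or murine L929 (10K/well, plated 18 h, then 40 uM zVAD-fmk medium) were grown in RPMI with 10% FBS. Both were pretreated with compound for 1 h at 37 °C before TNFa at 2 ng/mL final. Viability was read by CellTiter-Glo luminescence after 18 h.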
SMILES,IC50 [1],IC50 [2],IC50 [3]
"CN1C(=O)[C@@H](NC(=O)n2cc(Cc3cccc(F)n3)cn2)COc2ccc(C#CC(C)(C)CO)cc21 [I-37, (S)-4-((6-Fluoropyridin-2-yl)methyl)-N-(7-(4-hydroxy-3,3-dimethylbut-1-yn-1-yl)-5-methyl-4-oxo-2,3,4,5-tetrahydrobenzo[b][1,4]oxazepin-3-yl)-1H-pyrazole-1-carboxamide]",16.2 nM,697 nM,4 nM
"CN1C(=O)[C@@H](NC(=O)n2cc(Cc3cccnc3F)cn2)COc2ccc(Br)cc21 [I-42, (S)—N-(7-Bromo-5-methyl-4-oxo-2,3,4,5-tetrahydrobenzo[b][1,4]oxazepin-3-yl)-4-((2-fluoropyridin-3-yl)methyl)-1H-pyrazole-1-carboxamide]",18.2 nM,28400 nM,58.6 nM
"CN1C(=O)[C@@H](NC(=O)n2cc(Cc3cccnc3F)cn2)COc2ccc(C#CC(C)(C)O)cc21 [I-43, (S)-4-((2-Fluoropyridin-3-yl)methyl)-N-(7-(3-hydroxy-3-methylbut-1-yn-1-yl)-5-methyl-4-oxo-2,3,4,5-tetrahydrobenzo[b][1,4]oxazepin-3-yl)-1H-pyrazole-1-carboxamide]",17.7 nM,2520 nM,17.9 nM
"CN1C(=O)[C@@H](NC(=O)n2cc(Cc3cccnc3F)cn2)COc2ccc(C#CC3(O)CCOCC3)cc21 [I-44, (S)-4-((2-Fluoropyridin-3-yl)methyl)-N-(7-((4-hydroxytetrahydro-2H-pyran-4-yl)ethynyl)-5-methyl-4-oxo-2,3,4,5-tetrahydrobenzo[b][1,4]oxazepin-3-yl)-1H-pyrazole-1-carboxamide]",62.9 nM,4120 nM,18 nM
"CN1C(=O)[C@@H](NC(=O)n2cc(Cc3cccnc3F)cn2)COc2ccc(C#CC3CCOCC3)cc21 [I-45, (S)-4-((2-Fluoropyridin-3-yl)methyl)-N-(5-methyl-4-oxo-7-((tetrahydro-2H-pyran-4-yl)ethynyl)-2,3,4,5-tetrahydrobenzo[b][1,4]oxazepin-3-yl)-1H-pyrazole-1-carboxamide]",45 nM,512 nM,5.2 nM
"CN1C(=O)[C@@H](NC(=O)n2cc(Cc3cccnc3F)cn2)COc2ccc(C#CC(C)(C)CO)cc21 [I-46, (S)-4-((2-Fluoropyridin-3-yl)methyl)-N-(7-(4-hydroxy-3,3-dimethylbut-1-yn-1-yl)-5-methyl-4-oxo-2,3,4,5-tetrahydrobenzo[b][1,4]oxazepin-3-yl)-1H-pyrazole-1-carboxamide]",37.5 nM,2370 nM,9.7 nM
"CN1C(=O)[C@@H](NC(=O)n2cc(Cc3cccnc3F)cn2)COc2ccc(C#CC3(O)COC3)cc21 [I-47, (S)-4-((2-Fluoropyridin-3-yl)methyl)-N-(7-((3-hydroxyoxetan-3-yl)ethynyl)-5-methyl-4-oxo-2,3,4,5-tetrahydrobenzo[b][1,4]oxazepin-3-yl)-1H-pyrazole-1-carboxamide]",17.5 nM,2900 nM,40.8 nM
"CN1C(=O)[C@@H](NC(=O)n2cc(Cc3cccnc3F)cn2)COc2ccc(C#CC3(O)CCC3)cc21 [I-48, (S)-4-((2-Fluoropyridin-3-yl)methyl)-N-(7-((1-hydroxycyclobutyl)ethynyl)-5-methyl-4-oxo-2,3,4,5-tetrahydrobenzo[b][1,4]oxazepin-3-yl)-1H-pyrazole-1-carboxamide]",646 nM,1470 nM,24.9 nM
"CN1C(=O)[C@@H](NC(=O)n2cc(Cc3ccc(F)nc3F)cn2)COc2ccc(C#CC(C)(C)O)cc21 [I-50, (S)-4-((2,6-Difluoropyridin-3-yl)methyl)-N-(7-(3-hydroxy-3-methylbut-1-yn-1-yl)-5-methyl-4-oxo-2,3,4,5-tetrahydrobenzo[b][1,4]oxazepin-3-yl)-1H-pyrazole-1-carboxamide]",181 nM,17600 nM,62.3 nM
"CN1C(=O)[C@@H](NC(=O)c2cc(Cc3cccnc3F)ccn2)COc2ccc(C#CC3CCOCC3)cc21 [I-51, (S)-4-((2-fluoropyridin-3-yl)methyl)-N-(5-methyl-4-oxo-7-((tetrahydro-2H-pyran-4-yl)ethynyl)-2,3,4,5-tetrahydrobenzo[b][1,4]oxazepin-3-yl)picolinamide]",18.3 nM,9.6 nM,0.4 nM
"CN1C(=O)[C@@H](NC(=O)c2cc(Cc3cccnc3F)ccn2)COc2ccc(C#CC3COC3)cc21 [I-52, (S)-4-((2-fluoropyridin-3-yl)methyl)-N-(5-methyl-7-(oxetan-3-ylethynyl)-4-oxo-2,3,4,5-tetrahydrobenzo[b][1,4]oxazepin-3-yl)picolinamide]",16.5 nM,657 nM,2.2 nM
"CN1C(=O)[C@@H](NC(=O)c2cc(Cc3cccc(F)n3)ccn2)COc2ccc(C#CC3CCOCC3)cc21 [I-53, (S)-4-((6-fluoropyridin-2-yl)methyl)-N-(5-methyl-4-oxo-7-((tetrahydro-2H-pyran-4-yl)ethynyl)-2,3,4,5-tetrahydrobenzo[b][1,4]oxazepin-3-yl)picolinamide]",35.1 nM,114 nM,3 nM
"CN1C(=O)[C@@H](NC(=O)c2cc(Oc3cccnc3F)ccn2)COc2ccc(C#CC(C)(C)O)cc21 [I-54, (S)-4-((2-fluoropyridin-3-yl)oxy)-N-(7-(3-hydroxy-3-methylbut-1-yn-1-yl)-5-methyl-4-oxo-2,3,4,5-tetrahydrobenzo[b][1,4]oxazepin-3-yl)picolinamide]",16.8 nM,573 nM,7.1 nM
"CN1C(=O)[C@@H](NC(=O)c2cc(Oc3cccnc3F)ccn2)COc2ccc(C#CC3COC3)cc21 [I-55, (S)-4-((2-fluoropyridin-3-yl)oxy)-N-(5-methyl-7-(oxetan-3-ylethynyl)-4-oxo-2,3,4,5-tetrahydrobenzo[b][1,4]oxazepin-3-yl)picolinamide]",14.3 nM,155 nM,1.2 nM
"CN1C(=O)[C@@H](NC(=O)c2cc(Oc3cccnc3F)ccn2)COc2ccc(C#CC3(O)COC3)cc21 [I-56, (S)-4-((2-fluoropyridin-3-yl)oxy)-N-(7-((3-hydroxyoxetan-3-yl)ethynyl)-5-methyl-4-oxo-2,3,4,5-tetrahydrobenzo[b][1,4]oxazepin-3-yl)picolinamide]",10.5 nM,275 nM,2.9 nM
"CN1C(=O)[C@@H](NC(=O)c2cc(Oc3cccnc3)ccn2)COc2ccc(C#CC3(O)COC3)cc21 [I-57, (S)—N-(7-((3-hydroxyoxetan-3-yl)ethynyl)-5-methyl-4-oxo-2,3,4,5-tetrahydrobenzo[b][1,4]oxazepin-3-yl)-4-(pyridin-3-yloxy)picolinamide]",18.1 nM,437 nM,1.6 nM
"CN1C(=O)[C@@H](NC(=O)c2cc(Oc3cccnc3)ccn2)COc2ccc(C#CC(C)(C)O)cc21 [I-58, (S)—N-(7-(3-hydroxy-3-methylbut-1-yn-1-yl)-5-methyl-4-oxo-2,3,4,5-tetrahydrobenzo[b][1,4]oxazepin-3-yl)-4-(pyridin-3-yloxy)picolinamide]",20.2 nM,1180 nM,3.8 nM
